Patent US20170327789A1, “Modulation of Dopamine Receptor to Promote Neural Cell Differentiation” (The Hospital for Sick Children, priority 2014, published 2017)

Experiments:
human fetal NSC (hf5205) = experiment: Immunocytochemistry for Vglut1 after 3 weeks differentiation; type: cell-based; settings: 2-step growth withdrawal
Procedure: Antibodies included: Beta-III tubulin (1:100 MAB1637), GFAP (1:1000, DAKO), Vglut1 (1:1000, Synaptic system), GABA (1:1000, Sigma). Appropriate fluorescent-conjugated secondary antibodies were used at 1:500 for 1 h at room temperature. Coverslips were mounted with fluorescent mounting medium (DAKO) containing DAPI (1:1000) and cells were imaged using Leica microscope. Hit validation for differentation. All retests for differentiation were done by a two step growth withdrawal method (as described in Sun et al. Mol. Cell. Neurosci. 38(2008) 245-258) with and without the test compound for 8 days. […] Immunocytochemistry was performed for a series of antibodies marking different classes of neurons based on their neurotransmitters including glutamatergic, dopaminergic, cholinergic and serotonergic. […] Vglut1 is a vesicular glutamate transporter required for transport of glutamate into synaptic vesicles of glutamatergic neurons.

human fetal NSC [1] = experiment: RT-qPCR gene expression of neuronal lineage and cortical layer markers in differentiated cells; type: cell-based
Procedure: Hit validation for differentation. All retests for differentiation were done by a two step growth withdrawal method (as described in Sun et al. Mol. Cell. Neurosci. 38(2008) 245-258) with and without the test compound for 8 days. Test compounds included L-741,742 (3 μM), PNU96415E (15 μM), Ifenprodil tartrate (1.5 μM), McN A-343 (4 μM), and (−) —N-Phenylcarbamoyleseroline (6 μM). For mature neuronal marker analysis, human fetal NSC were differentiated for 3 weeks using L-741,742 (2-4 μM varying at different stages) in the two step growth withdrawal method.
The differentiated cells were further tested for gene expression of different neuronal lineage markers by RT-qPCR. A series of primers were designed for markers representing both neurotransmitters and domain specific regions as shown in Table 1.
L-741,742-differentiated neurons show cortical layer V marker. L-741,742-differentiated cells show increased expression of VGLUT1 and NEUROG2. NEUROG2 expression is required for promoting excitatory neurons in the dorsal cortical region during development. To test if L-741,742 promotes or specifies specific cortical layer neurons, a series of primers were designed to mark all layers of cortex; Reelin (layer 1), Tbr1 (layer V1), Ctip2 (Layer V), Satb2 (Layer II-III) and Foxg1 (telenchepalic marker) (Table 1). The expression of these markers in L-741,742-differentiated cells was determined by RT-qPCR. […] Thus, L-741,742-differentiated neurons express cortical layer V marker CTIP2 and telencephalic marker FOXG1, with VGLUT1 expression, indicating differentiation into cortical layer neurons.

human fetal NSC [2] = experiment: GABA staining of differentiated cells, week 1-3; type: cell-based; settings: 2 week differentiated cells
Procedure: Immunocytochemistry. hfNS cells differentiated on coverslips were fixed with 4% paraformaldehyde and permeabilized with 0.3% Triton X100, block with 5% goat serum, and incubated with primary antibody overnight at 4° C. Antibodies included: Beta-III tubulin (1:100 MAB1637), GFAP (1:1000, DAKO), Vglut1 (1:1000, Synaptic system), GABA (1:1000, Sigma). Appropriate fluorescent-conjugated secondary antibodies were used at 1:500 for 1 h at room temperature. Coverslips were mounted with fluorescent mounting medium (DAKO) containing DAPI (1:1000) and cells were imaged using Leica microscope.
L-741,742-differentiated cells were also tested for GABA staining from week 1-3 and GABA positive cells were present in early in 1 week differentiated cells, showing up to 11% GABA positive neurons in 2 week differentiated cells (FIG. 5).

Hf5205 cells = experiment: Single cell qPCR (Fluidigm analysis) of differentiated cells; type: cell-based, human; settings: 3.5 μM, three weeks
Procedure: Single Cell qPCR (Fluidigm Analysis). Differentiated hfNS (hf5205) at week 3 was accutased and cells were resuspended in NS medium containing 1 μg per ml of propidium iodide and filtered through a 40 μm nylon cell strainer followed by live single cell sorting into a 96 well qPCR plate on a BD cell sorter. Cells were sorted into 10 μl of preamplification mix containing 40 nM of all primers for the 48 genes, and the following components of CellsDirect One-Step qRT-PCR kit (Invitrogen) as directed in protocol: 2× reaction mix, SuperScript III RT/platinum Taq mix. After sorting, samples were reverse transcribed and preamplified for 18 cycles. Preamplified samples were diluted (2×) with TE buffer and stored at −20° C. Sample and assay primer preparation for Fluidigm Dynamic arrays was done according to the manufacturer's recommendation. Samples were mixed with 2× assay loading reagent (Fluidigm Corp), 20× EvaGreen and TaqMan gene expression master mix. The Fluidigm Dynamic arrays were primed and loaded on the IFC controller and qPCR experiments were run on a Biomark system for genetic analysis.
Fluidigm Analysis. Hf5205 cells were differentiated in the two-step growth withdrawal method, with and without L-741,742 (3.5 μM) for three weeks. The differentiated cells were harvested and filtered through a 40 uM nylon filter and live sort single cell (based on PI staining) into a 96 well qRT-PCR plate containing pre-amplification mix of 48 primers, reverse transcribed and amplified for 48 genes (as described in Pasca et al. Nature Medicine (2011) November 27; 17(12) 1657-62) in one step using a kit from Invitrogen. Samples and primer pairs were prepared for Fluidigm as per protocol. Cells were identified based on presence of RPS18 and GAPDH, Data was analyzed based on population of cells expressing particular genes using different CT value cut off.
Characterization of L-741,742-differentiated cells by Fluidigm analysis. To further characterize the different population of neurons in L-741,742 differentiated culture, a single cell Fluidigm array was employed that can perform multiple qRT-PCR (48 genes or 96 genes) at a single cell level as shown in FIG. 6. Forty eight (48) gene primers marking various cell populations were used including, early progenitor marking dorsal, ventral or midbrain, differentiated neuronal markers based on neurotransmitters GABA or glutamatergic and markers specifying different cortical layers. Primer sequences were obtained from Pasca et al. Nature Medicine (2011) November 27; 17(12) 1657-62).

Compound	Vglut1-positive staining indicating differentiation into glutamatergic neurons (human fetal NSC (hf5205))	Reelin expression (human fetal NSC [1]; at the concentration tested)	Tbr1 expression (human fetal NSC [1]; at the concentration tested)	increase in NEUROG2 expression (human fetal NSC [1]; compared to the control)	increase in VGLUT1 expression (human fetal NSC [1]; compared to the control)	increase in CTIP2 expression (human fetal NSC [1]; cortical layer V marker)	increase in FOXG1 expression (human fetal NSC [1]; telencephalic marker)	GABA positive neurons (human fetal NSC [2])	expression of CAMKII (marking glutamatergic neurons) (Hf5205 cells)	expression of EVT1 (marking lower cortical layer V) (Hf5205 cells)	expression of MAP2 (marking neurons) (Hf5205 cells)	expression of VGLUT1 (marking glutamatergic neurons) (Hf5205 cells)	expression of VGLUT2 (marking glutamatergic neurons) (Hf5205 cells)	expression of VGLUT3 (marking glutamatergic neurons) (Hf5205 cells)
Cc1c(C2CCN(CCc3ccccc3)CC2)noc1-c1ccc(Cl)cc1 [L-741,742]	Vglut1-positive staining	not detectable	not detectable	11 fold	15-35 fold	approximately 23 fold	~27 fold	up to 11%	increase	increase	increase	increase	increase	increase
Cl.Cl.Fc1ccc(N2CCN(CCC3OCCc4ccccc43)CC2)cc1 (stereo not shown) [PNU96415E]	Vglut1-positive staining	–	–	–	–	–	–	–	–	–	–	–	–	–
Ifenprodil tartrate	Vglut1-positive staining	–	–	–	–	–	–	–	–	–	–	–	–	–
